This is an account of results in patent publication US7928063B2, “Analogs of human growth hormone-releasing hormone, their preparation and use” (Instytut Farmaceutyczny, priority 2001, dated 2011).

The test system of one data set is trypsin. The data set is described as follows: Trypsin digestion test (enzymatic resistance, HPLC). It is filed as in vitro ADME. The note with it: for Resistance to trypsin digestion (in words): after 30 minutes; for remaining at 0.5 h, 0.4 mg/ml / remaining at 1 h, 0.4 mg/ml: trypsin, pH 8.5, 37° C., read-out: % Unchanged compound; for remaining at 0.5 h, 0.4 mg/ml: digestion time 30 min.; for remaining at 1 h, 0.4 mg/ml: digestion time 60 min. The protocol:
The compounds prepared were also tested for enzymatic resistance in the trypsin digestion test. […] Subsequently, a trypsin solution was added (100 μl; 0.02 mg/ml; Serva, 36 U/mg). […] An aliquot (500 μl) was withdrawn and diluted with 0.5 M acetic acid (1 ml), then lyophilized. The material obtained was analyzed by HPLC, using a Knauer system with an Eurospher 100 C18 (4.6×250 mm, 5 micron) column. The following solvent systems were used: A, 0.1% TFA in water; […]

For the next data set, the system named is GH release. The experiment in a line: Effect of subcutaneous administration on GH release (plasma GH by RIA) in male rats. It is filed as in vivo, rat. The following applies: for Relative potency compared with hGH-RH-(1-29)—NH2: at 15 minutes after the injection; for Plasma GH at various times after injection, 15 min. / Plasma GH at various times after injection, 30 min. / Plasma GH at various times after injection, 0 min.: male rats, mean ± SEM; for Plasma GH at various times after injection, 0 min.: sample 1 minute before injection; for Net GH concentration Δ(15 − 30): GH at 15 min. minus GH at 30 min.; for Net GH concentration Δ(15 − 0): GH at 15 min. minus GH before injection.

Setting [1] is: trypsin solution (Serva, 36 U/mg).

Each structure is given as a SMILES string. Read-outs that look alike come from different tables or passages of the source. Square brackets hold non-standard residues; d marks the D form. Peptide text beside a SMILES is read from it. * marks the point of attachment. Desaminotyrosyl = O=C(CCc1ccc(O)cc1)*; hArg = N=C(N)NCCCC[C@H](N)C(=O)O; Nle = CCCC[C@H](N)C(=O)O Where only a bound is given, the exact number is not on record here.

On to `CCCC[C@H](NC(=O)[C@@H](NC(=O)[C@H](CC(=O)O)NC(=O)[C@H](CCC(N)=O)NC(=O)[C@H](CC(C)C)NC(=O)[C@H](CC(C)C)NC(=O)[C@H](CCCCNC(=N)N)NC(=O)[C@H](CCCCNC(=N)N)NC(=O)[C@H](C)NC(=O)[C@H](CO)NC(=O)[C@H](CC(C)C)NC(=O)[C@H](CCC(N)=O)NC(=O)[C@H](C)NC(=O)[C@H](CC(C)C)NC(=O)[C@@H](NC(=O)[C@H](CCCCNC(=N)N)NC(=O)[C@H](CCCCNC(=N)N)NC(=O)[C@H](Cc1ccc(O)cc1)NC(=O)[C@H](CO)NC(=O)[C@H](CC(N)=O)NC(=O)[C@@H](NC(=O)[C@H](Cc1ccccc1)NC(=O)[C@@H](NC(=O)[C@H](C)NC(=O)[C@H](CC(=O)O)NC(=O)[C@H](C)NC(=O)CCc1ccc(O)cc1)[C@@H](C)CC)[C@@H](C)O)C(C)C)[C@@H](C)CC)C(=O)N[C@@H](CC(=O)O)C(=O)N[C@@H](CCCCNC(=N)N)C(N)=O` [Compound 1, Dat-Ala-Asp-Ala-Ile-Phe-Thr-Asn-Ser-Tyr^10-hArg-hArg-Val-Leu-Ala-Gln-Leu-Ser-Ala-hArg^20-hArg-Leu-Leu-Gln-Asp-Ile-Nle-Asp-hArg^29-NH2] (Desaminotyrosyl-ADAIFTNSY[hArg][hArg]VLAQLSA[hArg][hArg]LLQDI[Nle]D[hArg]-NH2), for which, in the data set with trypsin, the “Resistance to trypsin digestion (in words)” value is “unchanged”. In the data set with trypsin (isolated enzyme trypsin), the remaining at 0.5 h, 0.4 mg/ml was above 99% and the remaining at 1 h, 0.4 mg/ml was above 99%. Further, the “Relative potency compared with hGH-RH-(1-29)—NH2” value in the data set with GH release (dose 1.0 μg/kg vs 50 μg/kg of hGH-RH-(1-29)—NH2) worked out at 70 times higher. Further, the “Relative potency compared with hGH-RH-(1-29)—NH2” value in the data set with GH release (dose 3.0 μg/kg vs 150 μg/kg of hGH-RH-(1-29)—NH2) is listed as 38 times higher. In the data set with GH release (sc., dose 1 μg/kg), this compound had a Plasma GH at various times after injection, 15 min. of 99.1 ± 16 ng/mL; a Plasma GH at various times after injection, 30 min. of 42.5 ± 9.2 ng/mL; a Plasma GH at various times after injection, 0 min. of 23.1 ± 2 ng/mL. In the data set on GH release (sc., dose 3 μg/kg), this compound returned a Plasma GH at various times after injection, 15 min. of 130 ± 16 ng/mL; a Plasma GH at various times after injection, 30 min. of 58.4 ± 8.9 ng/mL; a Plasma GH at various times after injection, 0 min. of 28.3 ± 4.1 ng/mL. Besides, the “Effect on GH release in rats, compared with saline control (in words)” value in the data set on GH release (rats, sc.) is on record as “strongest stimulating effect”. Moreover, in the data set with GH release (rats, sc., dose 1 μg/kg), the “Net GH concentration Δ(15 − 30)” value worked out at 56.5 ± 14.7 ng/mL and the “Net GH concentration Δ(15 − 0)” value amounted to 75.9 ± 16.0 ng/mL. For the same compound, in the data set on GH release (rats, sc., dose 3 μg/kg), the “Net GH concentration Δ(15 − 30)” value is 72.0 ± 12.6 ng/mL and the “Net GH concentration Δ(15 − 0)” value came out at 102 ± 12.6 ng/mL.

`CC[C@H](C)[C@H](NC(=O)[C@H](C)NC(=O)[C@H](CC(=O)O)NC(=O)[C@H](C)NC(=O)[C@@H](N)Cc1ccc(O)cc1)C(=O)N[C@@H](Cc1ccccc1)C(=O)N[C@H](C(=O)N[C@@H](CC(N)=O)C(=O)N[C@@H](CO)C(=O)N[C@@H](Cc1ccc(O)cc1)C(=O)N[C@@H](CCCNC(=N)N)C(=O)N[C@@H](CCCCN)C(=O)N[C@H](C(=O)N[C@@H](CC(C)C)C(=O)NCC(=O)N[C@@H](CCC(N)=O)C(=O)N[C@@H](CC(C)C)C(=O)N[C@@H](CO)C(=O)N[C@@H](C)C(=O)N[C@@H](CCCNC(=N)N)C(=O)N[C@@H](CCCCN)C(=O)N[C@@H](CC(C)C)C(=O)N[C@@H](CC(C)C)C(=O)N[C@@H](CCC(N)=O)C(=O)N[C@@H](CC(=O)O)C(=O)N[C@H](C(=O)N[C@@H](CCSC)C(=O)N[C@@H](CO)C(=O)N[C@@H](CCCNC(=N)N)C(N)=O)[C@@H](C)CC)C(C)C)[C@@H](C)O` [hGH-RH(1-29)-NH2, reference compound]: the “Resistance to trypsin digestion (in words)” value in the data set on trypsin is “complete digestion”. Moreover, in the data set on trypsin (setting [1]), the remaining at 0.5 h, 0.4 mg/ml came out at 0% and the remaining at 1 h, 0.4 mg/ml came to 0%.
